Test results published in US20250108036A1, “COMPOSITIONS FOR REMOVING SENESCENT CELLS AND USES THEREOF” (LIFECEUTIX CO., LTD., priority 2021, published 2025).

Columns and labels:
[1] = tested on: Splenocyte; details: cited from earlier work
[2] = open field test in obese mice given senescent cells killed by test compounds (Example 16, Table 72); assay type: in vivo, C57BL6J mice; details: obese mice administered senescent cells whose death was induced by the test compound
Outline: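 Doxorubicin-senesced (250 nM, 24 h, then 21 days) mouse preadipocytes killed by test compound were injected subcutaneously (5×10^5 cells) into 8-week-old female C57BL6J mice, followed by intraperitoneal senescent preadipocytes on days 7 and 10 and 8 weeks of high-fat diet. Open-field activity expressed as % of mice without killed-cell administration.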

[3] = open field test in naturally aged mice treated with test compounds (Example 15, Table 71); assay type: in vivo, C57BL6J mice; details: naturally aged mice treated with test compound
[4] = tested on: p16, MMP3, IL6; experiment: p16, MMP3, IL6 mRNA qRT-PCR in liver of naturally aged mice treated with test compounds (Example 15, Table 71); assay type: in vivo, C57BL6J mice; details: liver tissue of naturally aged mice treated with test compound
[5] = tested on: foreskin cells in which senescence was induced by doxorubicin; experiment: CellTiter-Glo cell viability of doxorubicin-induced senescent foreskin cells (Examples 1-2, 10, 11, 13; Tables 4, 63, 65); assay type: cell-based, human; details: doxorubicin-induced senescent foreskin cells, CellTiter-Glo, 0 μM = 100
Protocol: (§1) After 3 days, cell viability was measured using CellTiter-Glo Luminescent Cell Viability Assay (Promega) or light microscopy.

[6] = tested on: p16, MMP3, IL6; experiment: p16, MMP3, IL6 mRNA qRT-PCR in groin fat of obese mice given senescent cells killed by test compounds (Example 16, Table 72); assay type: in vivo, C57BL6J mice; details: obese mice administered senescent cells whose death was induced by the test compound
Outline: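 Mouse groin-fat preadipocytes made senescent with 250 nM doxorubicin for 24 h plus 21 days, killed by test compounds, and given subcutaneously (5×10^5 cells) to female C57BL6J mice. Senescent preadipocytes then given i.p., followed by 8-week high-fat diet. Groin-fat p16, MMP3 and IL6 mRNA measured by qRT-PCR as % of mice without killed-cell administration.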

[7] = tested on: HMGN1; experiment: HMGN1 ELISA in culture medium of foreskin cells (Examples 10, 11; Tables 62, 63, 64); assay type: cell-based, human; details: 30 μM test compound, doxorubicin-treated foreskin cells, DMSO = 100
[8] = tested on: A549; experiment: CellTiter-Glo cell viability of senescent A549 cancer cells (Example 12, Table 67); assay type: cell-based, human; details: doxorubicin-induced senescent A549 cancer cells, 1.1 μM test compound, CellTiter-Glo
[9] = tested on: senescent foreskin cells; experiment: survival of senescent foreskin cells treated with medium supernatant (secreted fluid) of compound-killed cells (Example 13, Tables 68, 69); assay type: cell-based, human; details: culture medium supernatant from dying senescent cells treated with compound at 30 μM, 90 μM or 270 μM; senescent foreskin cells
Protocol: as §1
During this additional culture, by checking with an optical microscope, etc., the medium supernatants containing secreted fluid from normally proliferating and senescent cells in which cell death was induced were obtained. The obtained medium supernatant was replaced with the medium of normally proliferating and senescent cells, respectively, and cell survival rate was measured after 3 days.

[10] = tested on: HMGN1; experiment: HMGN1 ELISA in culture medium of A549 cancer cells (Example 12, Table 66); assay type: cell-based, human; details: doxorubicin-induced senescent A549 cells, test compound 30 μM, ELISA, DMSO = 100

Compound	Splenocyte proliferation recovery [1]	Open Field Test Time in Center (%) [2]	Open Field Test Time in Center (%) [3]	IL6 mRNA (%) [4]	MMP3 mRNA (%) [4]	p16 mRNA (%) [4]	Survival (%) ([5]; 1.1 μM test compound)	Survival (%) ([5]; […] test compound)	IL6 mRNA (%) [6]	MMP3 mRNA (%) [6]	p16 mRNA (%) [6]	HMGN1 [7]	Survival (%) [8] [%]	Survival [9]	HMGN1 (amount of HMGN1 secreted in the cell culture) [10]
CC(O)[C@@H]1NC(=O)COCCOCCNC(=O)[C@H](C(C)O)NC(=O)N[C@@H](C(C)O)C(=O)NNC1=O (stereo partly drawn) [Example 80]	Splenocyte proliferation recovery 91%														
Decyltriphenylphosphonium [LX-1202]		175.9 (±21.5) %	231 (±23) %	74.1 (±6.1) %	40.2 (±22.7) %	74.2 (±10.4) %	22.7	3.1	62.8 (±8.9) %	70.7 (±7.5) %	67.2 (±12.1) %	289	53.4	55.1	301
